In patent US10160771B2, “Hepatitis C virus inhibitors and uses thereof in preparation of drugs” (priority 2014, dated 2018):

How the values were obtained:
[1] = tested on: HCV genotype 1b (HCV-1b) replicon cells; test: HCV genotype 1b replicon luciferase assay (EC50); type: cell-based, hepatitis C virus genotype 1b (Con1 clone); conditions: 3 days, luciferase (Bright-Glo)
Summary of the method: (§1)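 EC50 by nonlinear fitting of % inhibition from Bright-Glo luciferase signal after 3-day, 37° C. compound exposure (5-fold, 6 points from 100, 10 or 1 nM; 0.5% DMSO; duplicates). Cells: 1a replicon from H77 (K1691R/K2040R/S2204I) or 1b from Con1 (E1202G/T1280I/K1846T), 8000 per well.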

[2] = Cell Titer-fluor cell activity assay in HCV-1b replicon cells (CC50); type: cell-based
Summary of the method: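 CC50 derived by nonlinear fitting of inhibition % from Cell Titer-fluor signal (405/515 nm, 30 min). Cells: genotype 1b Con1 replicon carrying E1202G, T1280I, K1846T, seeded 8000/well with compound for 3 days, 37 °C, 0.5% DMSO; 6 points, 5-fold dilution, top 100, 10 or 1 nM, duplicates.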

[3] = tested on: HCV genotype 1a (HCV-1a) replicon cells; test: HCV genotype 1a replicon luciferase assay (EC50); type: cell-based, hepatitis C virus genotype 1a (H77 clone); conditions: 3 days, luciferase (Bright-Glo)
Summary of the method: as §1

SMILES	EC50 ([1]; Hepatitis C virus, 72 h) [nM]	CC50 at 3 days [2] [nM]	EC50 ([3]; Hepatitis C virus, 72 h) [nM]	EC50 [1] [nM]	EC50 [3] [nM]
COC(=O)N[C@H](C(=O)N1CCC[C@H]1c1ncc(-c2ccc(-c3ccc(-c4cnc(C5C6CCC(C6)[C@@H]5C(=O)NCc5cccnc5C5CC5)[nH]4)cc3)cc2)[nH]1)[C@@H](C)OC (stereo partly drawn) [AA_256_A]	0.001 to 0.1	> 1	10 to 100		
COC(=O)N[C@H](C(=O)N1CCC[C@H]1c1ncc(-c2ccc(-c3ccc(-c4cnc(C5C6CCC(C6)[C@@H]5C(=O)NCc5cccnc5C(F)(F)F)[nH]4)cc3)cc2)[nH]1)[C@@H](C)OC (stereo partly drawn) [AA_255_A]	0.001 to 0.1	> 1	10 to 100		
COC(=O)N[C@H](C(=O)N1CCC[C@H]1c1ncc(-c2ccc(-c3ccc(-c4cnc([C@H]5C6CCC(C6)[C@@H]5C(=O)NCc5ccco5)[nH]4)cc3)cc2)[nH]1)C(C)C (stereo partly drawn) [AA_198_A]	0.001 to 0.1	> 1	1 to 10		
COC(=O)N[C@H](C(=O)N1CCC[C@H]1c1ncc(-c2ccc(-c3ccc(-c4cnc([C@@H]5C6CCC(C6)[C@H]5C(=O)NCc5cncnc5)[nH]4)cc3)cc2)[nH]1)C(C)C (stereo partly drawn) [AA_201_B]	0.001 to 0.1	> 1	1 to 10		
COC(=O)N[C@H](C(=O)N1CCC[C@H]1c1ncc(-c2ccc(-c3ccc(-c4cnc([C@@H]5CCCC[C@H]5C(=O)NCc5cccnc5)[nH]4)cc3)cc2)[nH]1)C(C)C [AA_150_B]	0.001 to 0.1	> 10	0.101 to 1		
COC(=O)N[C@H](C(=O)N1CCC[C@H]1c1ncc(-c2ccc(-c3ccc(-c4cnc([C@@H]5[C@H]6CC[C@H](C6)[C@H]5C(=O)N[C@H](c5cccnc5)C(C)C)[nH]4)cc3)cc2)[nH]1)C(C)C [AA_233_ENDOA2_A]	0.001 to 0.1	> 1	0.101 to 1		
COC(=O)N[C@H](C(=O)N1CCC[C@H]1c1ncc(-c2ccc(-c3ccc(-c4cnc([C@@H]5C6CCC(C6)[C@H]5C(=O)NCc5cccc(N)c5)[nH]4)cc3)cc2)[nH]1)C(C)C (stereo partly drawn) [AA_199_B]	0.001 to 0.1	> 1	10 to 100		
COC(=O)N[C@H](C(=O)N1CCC[C@H]1c1ncc(-c2ccc(-c3ccc(-c4cnc([C@@H]5C6CCC(C6)[C@H]5C(=O)NCc5cccnc5F)[nH]4)cc3)cc2)[nH]1)C(C)C (stereo partly drawn) [AA_224_B]	0.001 to 0.1	> 1	1 to 10		
COC(=O)N[C@H](C(=O)N1CCC[C@H]1c1[nH]c(-c2ccc(-c3ccc(-c4cnc([C@@H]5CCCCN5C(=O)[C@@H](NC(=O)OC)[C@@H](C)OC)[nH]4)cc3)cc2)c2c1CCCO2)C(C)C [AG_121]	0.001 to 0.1	> 1	10 to 100		
COC(=O)N[C@H](C(=O)N1CCCC1c1ccc(-c2ccc(-c3ccc(-c4cnc([C@@H]5CCCN5C(=O)[C@@H](NC(=O)OC)[C@@H](C)OC)[nH]4)cc3)cc2)[nH]1)[C@@H](C)OC (single isomer, unassigned) [AG_072_A]		> 1		0.001 to 0.1	0.001 to 0.1
COC(=O)N[C@H](C(=O)N1CCC[C@H]1c1ncc(-c2ccc(-c3ccc(-c4cnc(C5C6CCC(C6)[C@H]5C(=O)NCc5ccncc5)[nH]4)cc3)cc2)[nH]1)[C@@H](C)OC (stereo partly drawn) [AA_248_A]	0.101 to 1	> 1	10 to 100		
COC(=O)N[C@H](C(=O)N1CCC[C@H]1c1ncc(-c2ccc(-c3ccc(-c4cnc(C5[C@H]6CC[C@H](C6)[C@H]5C(=O)NCc5cccnc5F)[nH]4)cc3)cc2)[nH]1)C(C)C (stereo partly drawn) [AA_224_ENDOA2]	0.001 to 0.1	> 1	0.101 to 1		
COC(=O)N[C@@H](CO)C(=O)N1CCC[C@H]1c1ncc(-c2ccc(-c3ccc(-c4ccc([C@@H]5CCCN5C(=O)[C@@H](NC(=O)OC)C(C)OC)[nH]4)cc3)cc2)[nH]1 (stereo partly drawn) [AG_119]	0.001 to 0.1	> 1	0.101 to 1		
COC(=O)N[C@H](C(=O)N1CCC[C@H]1c1ncc(-c2ccc(-c3ccc(-c4cnc(C5C6CCC(C6)[C@@H]5C(=O)N(NC(=O)OC)C(C)C)[nH]4)cc3)c(OC)c2)[nH]1)C(C)C (stereo partly drawn) [AA_190_A]	0.101 to 1	> 1	10 to 100		
COC[C@H](NC(=O)OC)C(=O)N1CCC[C@H]1c1ncc(-c2ccc(-c3ccc(-c4[nH]c([C@@H]5CCCN5C(=O)[C@@H](NC(=O)OC)C(C)OC)c5c4COC5)cc3)cc2)[nH]1 (stereo partly drawn) [AG_113]	0.001 to 0.1	> 1	0.101 to 1		
COC(=O)N[C@H](C(=O)N1CCC[C@H]1c1ncc(-c2ccc(-c3ccc(-c4cnc([C@H]5C6CCC(C6)[C@@H]5C(=O)NCc5nccs5)[nH]4)cc3)cc2)[nH]1)C(C)C (stereo partly drawn) [AA_208_A]	0.001 to 0.1	> 1	1 to 10		
COC(=O)N[C@H](C(=O)N1CCC[C@H]1c1ncc(-c2ccc(-c3ccc(-c4cnc([C@@H]5C6CCC(C6)[C@H]5C(=O)NCc5cccnc5C(F)(F)F)[nH]4)cc3)cc2)[nH]1)C(C)C (stereo partly drawn) [AA_216_B]	0.001 to 0.1	> 1	10 to 100		

SMILES	EC50 ([1]; Hepatitis C virus, 72 h) [nM]	CC50 at 3 days [2] [nM]	EC50 ([3]; Hepatitis C virus, 72 h) [nM]	EC50 [1] [nM]	EC50 [3] [nM]
COC(=O)N[C@H](C(=O)N1CCC[C@H]1c1ncc(-c2ccc3c(c2)C(=O)c2cc(-c4cnc(C5C6CCC(C6)[C@H]5C(=O)NCc5cccnc5)[nH]4)ccc2-3)[nH]1)C(C)C (stereo partly drawn) [AA_239]	0.001 to 0.1	> 1	1 to 10		
COC(=O)N[C@H](C(=O)N1CCC[C@H]1c1ncc(-c2ccc(-c3ccc(-c4cnc([C@H]5C6CCC(C6)[C@@H]5C(=O)NCc5cncnc5)[nH]4)cc3)cc2)[nH]1)C(C)C (stereo partly drawn) [AA_201_A]	0.001 to 0.1	> 1	0.101 to 1		
COC(=O)N[C@H](C(=O)N1CCC[C@H]1c1ncc(-c2ccc(-c3ccc(-c4cnc(C5C6CCC(C6)[C@@H]5C(=O)N(NC(=O)OC)C5CCOCC5)[nH]4)cc3)cc2)[nH]1)C(C)C (stereo partly drawn) [AA_158]	0.001 to 0.1	> 1	1 to 10		
COC(=O)NC(C(=O)N1CCC[C@H]1c1ncc(-c2ccc(-c3ccc(-c4cnc(C5CCCC[C@@H]5C(=O)N(NC(=O)OC)C(C)C)[nH]4)cc3)cc2)[nH]1)C1CCOCC1 (stereo partly drawn) [AA_109]	0.101 to 1	> 100	10 to 100		
COC(=O)N[C@H](C(=O)N1CCC[C@H]1c1ccc(-c2ccc(-c3ccc(-c4cnc([C@@H](NC(=O)[C@@H](NC(=O)OC)[C@@H](C)OC)C(C)C)[nH]4)cc3)cc2)[nH]1)C(C)C [AG_102]	0.001 to 0.1	> 1	1 to 10		
COC(=O)N[C@H](C(=O)N1CCC[C@H]1c1ncc(-c2ccc(-c3ccc(-c4cnc([C@H]5C6CCC(C6)[C@@H]5C(=O)NC(CO)c5ccccn5)[nH]4)cc3)cc2)[nH]1)C(C)C (stereo partly drawn) [AA_243_A]	0.001 to 0.1	> 1	10 to 100		
COC(=O)N[C@H](C(=O)N1CCC[C@H]1c1ncc(-c2ccc(-c3ccc(-c4cnc(C5C6CCC(C6)[C@H]5C(=O)NCc5cccnc5C(C)C)[nH]4)cc3)cc2)[nH]1)[C@@H](C)OC (stereo partly drawn) [AA_245_A]	0.001 to 0.1	> 1	10 to 100		
COC(=O)N[C@H](C(=O)N1CCC[C@H]1c1ncc(-c2ccc(-c3ccc(-c4cnc(C5C6CCC(C6)[C@@H]5C(=O)NCc5cccnc5F)[nH]4)cc3)cc2)[nH]1)[C@@H](C)OC (stereo partly drawn) [AA_252_A]	0.101 to 1	> 1	1 to 10		
COC(=O)N[C@H](C(=O)N1C[C@@H](OC)C[C@H]1c1ncc(-c2ccc(-c3ccc(-c4cnc([C@@H]5C6CCC(C6)[C@H]5C(=O)NCc5cccnc5)[nH]4)cc3)cc2)[nH]1)[C@@H](C)OC (stereo partly drawn) [AA_231_A]	0.001 to 0.1	> 1	0.101 to 1		
COC(=O)N[C@H](C(=O)N1CCC[C@H]1c1ncc(-c2ccc(-c3ccc(-c4cnc([C@H]5C6CCC(C6)[C@@H]5C(=O)NCc5cnccn5)[nH]4)cc3)cc2)[nH]1)C(C)C (stereo partly drawn) [AA_206_A]	0.001 to 0.1	> 1	0.101 to 1		
COC(=O)N[C@H](C(=O)N1CCC[C@H]1c1ncc(-c2ccc(-c3ccc(-c4cnc([C@H]5C6CCC(C6)[C@@H]5C(=O)NCc5ccc(N)cc5)[nH]4)cc3)cc2)[nH]1)C(C)C (stereo partly drawn) [AA_210_A]	0.001 to 0.1	> 1	10 to 100		
COC(=O)N[C@H](C(=O)N1CCC[C@H]1c1ncc(-c2ccc(-c3ccc(-c4cnc(C5C6CCC(C6)[C@@H]5C(=O)N(NC(=O)OC)C(C)C)[nH]4)cc3)cc2)[nH]1)C(C)C (stereo partly drawn) [AA_121_A]	1 to 10	> 10	10 to 100		
COC(=O)N[C@H](C(=O)N1CCC[C@H]1c1ncc(-c2ccc(-c3ccc(-c4cnc([C@H]5C6CCC(C6)[C@@H]5C(=O)NCc5ccc(OC)nc5)[nH]4)cc3)cc2)[nH]1)C(C)C (stereo partly drawn) [AA_200_A]	0.001 to 0.1	> 1	1 to 10		
COC(=O)N[C@H](C(=O)N1CCC[C@H]1c1ncc(-c2ccc3c(c2)C(F)(F)c2cc(-c4cnc(C5C6CCC(C6)[C@H]5C(=O)NCc5cccnc5)[nH]4)ccc2-3)[nH]1)C(C)C (stereo partly drawn) [AA_238]	0.001 to 0.1	> 1	1 to 10		
COC(=O)N[C@H](C(=O)N1CCC[C@H]1c1ncc(-c2ccc(-c3ccc(-c4cnc(C5C6CCC(C6)[C@@H]5C(=O)N(NC(=O)OC)C(C)C)[nH]4)cc3)c(C)c2)[nH]1)C(C)C (stereo partly drawn) [AA_167]	0.001 to 0.1	> 1	1 to 10		
COC(=O)N[C@H](C(=O)N1CCC[C@@H]1c1[nH]c(-c2ccc(-c3ccc(-c4cnc([C@@H]5CCCN5C(=O)[C@@H](NC(=O)OC)C(C)C)[nH]4)cc3)cc2)c2c1CCO2)C(C)C [AG_122_B]	0.101 to 1	> 1	10 to 100		
